Converted amounts (≈) assume the structure as drawn.
What was measured:
[1] = tested on: Klebsiella pneumoniae; assay: Antibacterial activity against Klebsiella pneumoniae MTCC 432 after 14 hrs by serial dilution method; assay type: functional; conditions: MTCC 432, 14 h
[2] = tested on: Bacillus subtilis; assay: Antibacterial activity against Bacillus subtilis MTCC 441 assessed as zone of inhibition at 100 ug/ml after 14 hrs by cup plate method; assay type: functional; conditions: MTCC 441, 14 h, read-out: IZ
[3] = tested on: Salmonella typhi; assay: Antibacterial activity against Salmonella typhi MTCC 733 assessed as zone of inhibition at 100 ug/ml after 14 hrs by cup plate method; assay type: functional, Salmonella enterica subsp. enterica serovar Typhi; conditions: Salmonella enterica, MTCC 733, 14 h; read-out: IZ
[4] = tested on: Escherichia coli; assay: Antibacterial activity against Escherichia coli MTCC 443 assessed as zone of inhibition at 100 ug/ml after 14 hrs by cup plate method; assay type: functional; conditions: MTCC 443, 14 h, read-out: IZ
[5] = tested on: Bacillus subtilis; assay: Antibacterial activity against Bacillus subtilis MTCC 441 after 14 hrs by serial dilution method; assay type: functional; conditions: MTCC 441, 14 h
[6] = tested on: Klebsiella pneumoniae; assay: Antibacterial activity against Klebsiella pneumoniae MTCC 432 assessed as zone of inhibition at 100 ug/ml after 14 hrs by cup plate method; assay type: functional; conditions: MTCC 432, 14 h, read-out: IZ
[7] = tested on: Staphylococcus aureus; assay: Antibacterial activity against Staphylococcus aureus MTCC 096 assessed as zone of inhibition at 100 ug/ml after 14 hrs by cup plate method; assay type: functional; conditions: MTCC 096, 14 h, read-out: IZ
[8] = tested on: Aspergillus fumigatus; assay: Antifungal activity against Aspergillus fumigatus MTCC 343 assessed as zone of inhibition at 100 ug/ml after 30 hrs by cup plate method; assay type: functional; conditions: MTCC 343, 30 h, read-out: IZ
[9] = tested on: Aspergillus flavus; assay: Antifungal activity against Aspergillus flavus MTCC 277 after 30 hrs by serial dilution method; assay type: functional; conditions: MTCC 277, 30 h
[10] = tested on: Candida albicans; assay: Antifungal activity against Candida albicans MTCC 227 after 30 hrs by serial dilution method; assay type: functional; conditions: MTCC 227, 30 h
[11] = tested on: Aspergillus niger; assay: Antifungal activity against Aspergillus niger MTCC 282 after 30 hrs by serial dilution method; assay type: functional; conditions: MTCC 282, 30 h
[12] = tested on: Candida albicans; assay: Antifungal activity against Candida albicans MTCC 227 assessed as zone of inhibition at 100 ug/ml after 30 hrs by cup plate method; assay type: functional; conditions: MTCC 227, 30 h, read-out: IZ
[13] = tested on: Aspergillus niger; assay: Antifungal activity against Aspergillus niger MTCC 282 assessed as zone of inhibition at 100 ug/ml after 30 hrs by cup plate method; assay type: functional; conditions: MTCC 282, 30 h, read-out: IZ
[14] = tested on: Aspergillus flavus; assay: Antifungal activity against Aspergillus flavus MTCC 277 assessed as zone of inhibition at 100 ug/ml after 30 hrs by cup plate method; assay type: functional; conditions: MTCC 277, 30 h, read-out: IZ
[15] = tested on: Aspergillus fumigatus; assay: Antifungal activity against Aspergillus fumigatus MTCC 343 after 30 hrs by serial dilution method; assay type: functional; conditions: MTCC 343, 30 h
[16] = tested on: Staphylococcus aureus; assay: Antibacterial activity against Staphylococcus aureus MTCC 096 after 14 hrs by serial dilution method; assay type: functional; conditions: MTCC 096, 14 h
[17] = tested on: Salmonella typhi; assay: Antibacterial activity against Salmonella typhi MTCC 733 after 14 hrs by serial dilution method; assay type: functional, Salmonella enterica subsp. enterica serovar Typhi; conditions: Salmonella enterica, MTCC 733, 14 h
[18] = tested on: Escherichia coli; assay: Antibacterial activity against Escherichia coli MTCC 443 after 14 hrs by serial dilution method; assay type: functional; conditions: MTCC 443, 14 h

| SMILES | MIC [1] | zone of inhibition at 100 µg/mL [2] | zone of inhibition at 100 µg/mL [3] | zone of inhibition at 100 µg/mL [4] | MIC [5] | zone of inhibition at 100 µg/mL [6] | zone of inhibition at 100 µg/mL [7] | zone of inhibition at 100 µg/mL [8] | MIC [9] | MIC [10] | MIC [11] | zone of inhibition at 100 µg/mL [12] | zone of inhibition at 100 µg/mL [13] | zone of inhibition at 100 µg/mL [14] | MIC [15] | MIC [16] | MIC [17] | MIC [18] |
| --- | --- | --- | --- | --- | --- | --- | --- | --- | --- | --- | --- | --- | --- | --- | --- | --- | --- | --- |
| O=C(O)c1cn(C2CC2)c2cc(N3CCNCC3)c(F)cc2c1=O [CIPROFLOXACIN] | 6.25 µg/mL (≈ 18.9 µM) | 18 mm | 14 mm | 18 mm | 6.25 µg/mL (≈ 18.9 µM) | 18 mm | 17 mm | – | – | – | – | – | – | – | – | – | – | – |
| Clc1ccc(COC(Cn2ccnc2)c2ccc(Cl)cc2Cl)c(Cl)c1 (stereo unspecified) [MICONAZOLE] | – | – | – | – | – | – | – | 14 mm | 6.25 µg/mL (≈ 15 µM) | 6.25 µg/mL (≈ 15 µM) | 6.25 µg/mL (≈ 15 µM) | 17 mm | 17 mm | 17 mm | 12.5 µg/mL (≈ 30 µM) | – | – | – |
| O=c1cc(C(F)(F)F)n(CCCCN2CCCCC2)c2ccc(F)cc12 | 12.5 µg/mL (≈ 33.7 µM) | < 10 mm | < 10 mm | < 10 mm | 25 µg/mL (≈ 67.5 µM) | 12 mm | 12 mm | < 10 mm | 12.5 µg/mL (≈ 33.7 µM) | 6.25 µg/mL (≈ 16.9 µM) | 12.5 µg/mL (≈ 33.7 µM) | 15 mm | 12 mm | 12 mm | 25 µg/mL (≈ 67.5 µM) | 12.5 µg/mL (≈ 33.7 µM) | 50 µg/mL (≈ 135 µM) | 50 µg/mL (≈ 135 µM) |
| O=c1cc(C(F)(F)F)n(C/C=C/CN2CCCC2)c2ccc(F)cc12 | 12.5 µg/mL (≈ 35.3 µM) | 12 mm | < 10 mm | < 10 mm | 12.5 µg/mL (≈ 35.3 µM) | 12 mm | 15 mm | 12 mm | 12.5 µg/mL (≈ 35.3 µM) | 6.25 µg/mL (≈ 17.6 µM) | 12.5 µg/mL (≈ 35.3 µM) | 15 mm | 12 mm | 12 mm | 12.5 µg/mL (≈ 35.3 µM) | 6.25 µg/mL (≈ 17.6 µM) | 25 µg/mL (≈ 70.6 µM) | 50 µg/mL (≈ 141 µM) |
| O=C1c2ccccc2C(=O)N1CCCCOc1cc(C(F)(F)F)nc2ccc(F)cc12 | 12.5 µg/mL (≈ 28.9 µM) | 15 mm | 12 mm | < 10 mm | 6.25 µg/mL (≈ 14.5 µM) | 12 mm | 15 mm | 12 mm | 12.5 µg/mL (≈ 28.9 µM) | 6.25 µg/mL (≈ 14.5 µM) | 6.25 µg/mL (≈ 14.5 µM) | 15 mm | 17 mm | 12 mm | 12.5 µg/mL (≈ 28.9 µM) | 6.25 µg/mL (≈ 14.5 µM) | 12.5 µg/mL (≈ 28.9 µM) | 25 µg/mL (≈ 57.8 µM) |
| O=C1c2ccccc2C(=O)N1CCCCn1c(C(F)(F)F)cc(=O)c2cc(F)ccc21 | 12.5 µg/mL (≈ 28.9 µM) | 13 mm | 13 mm | < 10 mm | 12.5 µg/mL (≈ 28.9 µM) | 13 mm | 15 mm | 12 mm | 25 µg/mL (≈ 57.8 µM) | 6.25 µg/mL (≈ 14.5 µM) | 6.25 µg/mL (≈ 14.5 µM) | 17 mm | 17 mm | < 10 mm | 12.5 µg/mL (≈ 28.9 µM) | 6.25 µg/mL (≈ 14.5 µM) | 12.5 µg/mL (≈ 28.9 µM) | 50 µg/mL (≈ 116 µM) |
| O=c1cc(C(F)(F)F)n(CCCCN2CCCC2)c2ccc(F)cc12 | 12.5 µg/mL (≈ 35.1 µM) | 15 mm | 12 mm | < 10 mm | 6.25 µg/mL (≈ 17.5 µM) | 13 mm | 14 mm | 12 mm | 12.5 µg/mL (≈ 35.1 µM) | 6.25 µg/mL (≈ 17.5 µM) | 12.5 µg/mL (≈ 35.1 µM) | 16 mm | 12 mm | 12 mm | 12.5 µg/mL (≈ 35.1 µM) | 6.25 µg/mL (≈ 17.5 µM) | 12.5 µg/mL (≈ 35.1 µM) | 50 µg/mL (≈ 140 µM) |
| O=c1cc(C(F)(F)F)n(C/C=C/CN2CCCCC2)c2ccc(F)cc12 | 12.5 µg/mL (≈ 33.9 µM) | 12 mm | < 10 mm | < 10 mm | 12.5 µg/mL (≈ 33.9 µM) | 12 mm | 13 mm | < 10 mm | 25 µg/mL (≈ 67.9 µM) | 12.5 µg/mL (≈ 33.9 µM) | 6.25 µg/mL (≈ 17 µM) | 12 mm | 17 mm | < 10 mm | 25 µg/mL (≈ 67.9 µM) | 12.5 µg/mL (≈ 33.9 µM) | 25 µg/mL (≈ 67.9 µM) | 50 µg/mL (≈ 136 µM) |
| Cc1ccc2nc(C(F)(F)F)cc(OCCCCN3C(=O)c4ccccc4C3=O)c2c1 | 6.25 µg/mL (≈ 14.6 µM) | 15 mm | 12 mm | < 10 mm | 6.25 µg/mL (≈ 14.6 µM) | 15 mm | 15 mm | 12 mm | 50 µg/mL (≈ 117 µM) | 6.25 µg/mL (≈ 14.6 µM) | 6.25 µg/mL (≈ 14.6 µM) | 15 mm | 17 mm | < 10 mm | 12.5 µg/mL (≈ 29.2 µM) | 6.25 µg/mL (≈ 14.6 µM) | 12.5 µg/mL (≈ 29.2 µM) | 50 µg/mL (≈ 117 µM) |
| O=C1c2ccccc2C(=O)N1CCCCn1c(C(F)(F)F)cc(=O)c2ccccc21 | 12.5 µg/mL (≈ 30.2 µM) | 12 mm | < 10 mm | < 10 mm | 12.5 µg/mL (≈ 30.2 µM) | 13 mm | 13 mm | < 10 mm | 25 µg/mL (≈ 60.3 µM) | 6.25 µg/mL (≈ 15.1 µM) | 12.5 µg/mL (≈ 30.2 µM) | 17 mm | 13 mm | < 10 mm | 25 µg/mL (≈ 60.3 µM) | 12.5 µg/mL (≈ 30.2 µM) | 25 µg/mL (≈ 60.3 µM) | 50 µg/mL (≈ 121 µM) |
| O=c1cc(C(F)(F)F)n(CCCCN2CCOCC2)c2ccc(F)cc12 | 25 µg/mL (≈ 67.1 µM) | 13 mm | < 10 mm | < 10 mm | 12.5 µg/mL (≈ 33.6 µM) | < 10 mm | 15 mm | < 10 mm | 25 µg/mL (≈ 67.1 µM) | 6.25 µg/mL (≈ 16.8 µM) | 12.5 µg/mL (≈ 33.6 µM) | 15 mm | 13 mm | < 10 mm | 25 µg/mL (≈ 67.1 µM) | 6.25 µg/mL (≈ 16.8 µM) | 25 µg/mL (≈ 67.1 µM) | 50 µg/mL (≈ 134 µM) |
| O=c1cc(C(F)(F)F)n(C/C=C/CN2CCOCC2)c2ccc(F)cc12 | 25 µg/mL (≈ 67.5 µM) | 14 mm | < 10 mm | < 10 mm | 6.25 µg/mL (≈ 16.9 µM) | < 10 mm | 12 mm | < 10 mm | 25 µg/mL (≈ 67.5 µM) | 6.25 µg/mL (≈ 16.9 µM) | 6.25 µg/mL (≈ 16.9 µM) | 15 mm | 17 mm | < 10 mm | 25 µg/mL (≈ 67.5 µM) | 12.5 µg/mL (≈ 33.8 µM) | 50 µg/mL (≈ 135 µM) | 25 µg/mL (≈ 67.5 µM) |
| CN1CCN(CCCCn2c(C(F)(F)F)cc(=O)c3cc(F)ccc32)CC1 | 25 µg/mL (≈ 64.9 µM) | 15 mm | < 10 mm | < 10 mm | 6.25 µg/mL (≈ 16.2 µM) | < 10 mm | 15 mm | 12 mm | 25 µg/mL (≈ 64.9 µM) | 12.5 µg/mL (≈ 32.4 µM) | 6.25 µg/mL (≈ 16.2 µM) | 12 mm | 14 mm | < 10 mm | 12.5 µg/mL (≈ 32.4 µM) | 6.25 µg/mL (≈ 16.2 µM) | 50 µg/mL (≈ 130 µM) | 50 µg/mL (≈ 130 µM) |
| COc1ccc2c(c1)c(=O)cc(C(F)(F)F)n2CCCCN1C(=O)c2ccccc2C1=O | 6.25 µg/mL (≈ 14.1 µM) | 13 mm | < 10 mm | < 10 mm | 12.5 µg/mL (≈ 28.1 µM) | 16 mm | 16 mm | < 10 mm | 25 µg/mL (≈ 56.3 µM) | 6.25 µg/mL (≈ 14.1 µM) | 12.5 µg/mL (≈ 28.1 µM) | 15 mm | 12 mm | < 10 mm | 25 µg/mL (≈ 56.3 µM) | 6.25 µg/mL (≈ 14.1 µM) | 25 µg/mL (≈ 56.3 µM) | 50 µg/mL (≈ 113 µM) |

From ChEMBL document CHEMBL2380193, “New trifluoromethyl quinolone derivatives: synthesis and investigation of antimicrobial properties” (2013)
